According to patent US12285034B2, “Human and non-human animal use of microbial anaplerotic oil” (HELIAE DEVELOPMENT, LLC, priority 2017, dated 2025):

Legend:
[1] = tested on: Aurantiochytrium acetophilum HS399; assay: Alternative promoters of OCFA production (Example 17); conditions: for capacity to induce the production of OCFAs: flask cultures
Experimental: Further, it may be beneficial to find alternative promotors to produce OCFA that are less toxic to the model organisms or that are simpler. In this implementation, pentanoate, heptanoate, yeast extract, proteose peptone, methionine, valine and isoleucine are evaluated for their capacity to induce the production of OCFAs. Erlenmeyer flasks can be used and A. acetophilum HS399 can be cultured following the protocols described herein.
In this implementation, respective flasks can be supplemented with different concentrations of the proposed promoters and the resulting biomass harvested and analyzed for total lipid and fatty acid analyses.

[2] = tested on: Aurantiochytrium acetophilum HS399; assay: Cyanocobalamin and propionate deposition, flask (Example 10); format: cell-based
[3] = tested on: Aurantiochytrium acetophilum HS399; format: cell-based; conditions: acetic acid titrant (control), pH 7
Experimental: In this implementation, initially (24 h incubation), the culture pH may not be controlled, and the pH of the respective treatments can drift from 7.5 to 8. After 24 h incubation, the desired pH set point of each treatment can be set using the respective organic acids. […] The cultures are aerated at 1.4 vvm and maintained at 27° C. under axenic conditions. […] This medium also contains a trace element solution (5 ml/L) and a vitamin solution (1 ml/L). The trace element solution can contain (g/L): […] […] Residual glucose is analyzed from culture supernatant (5000 g; 5 min) using a colorimetric method based on glucose […] activity. Residual acetate and propionate are analyzed by HPLC using external standard.

[4] = tested on: Yarrowia lipolytica ATCC18944; format: cell-based; conditions: 192 h, itaconic acid 0.5 / propionate 6 g/L
Experimental: Culture conditions. In one implementation, Yarrowia lipolytica ATCC18944 can be cultivated in triplicates (n=3) in a medium containing (g/L): glycerol (80), monosodium […]), yeast extract (1), NaCl (12.5), MgSO4 (7), H2O (2.5), KCl (0.5), CaCl2 (0.1), KH2PO4 (0.5), trace metal solution (5 mL) and vitamin solution (1 mL). The trace element solution may contain (g/L): […] The vitamin solution can be filter-sterilized (e.g., using 0.2 μm pore size filter) containing (mg L-1): thiamine (100), biotin (0.5) and cyanocobalamin (0.5) unless otherwise stated. In some implementations cyanocobalamin might be added to or subtracted from the medium formulation to change or impact propionic acid deposition in OCFA. […] In one implementation, a concentration of the cyanocobalamin and/or cobalt in the culture medium can be below 0.4 μM. […] The flasks can be incubated in the dark in an orbital shaker at 180 rpm, 27° C. In this implementation, sodium propionate is fed batch every day according to respective treatments. […] Analyses. Cell dry weights can be obtained by drying samples that are previously vacuum filtrated (e.g., using 0.2 μm pore size filters). Residual propionate is analyzed directly by high performance liquid chromatography (HPLC). Lipids and total fatty acids are analyzed using a direct extraction, transesterification followed by gas chromatography (GC) and detection by flame ionization (FID). The different fatty acids are identified and quantified using appropriate internal and external standards. Propionic acid deposition rate.

[5] = tested on: Aurantiochytrium acetophilum HS399; assay: Cyanocobalamin impact on glucose metabolism (Examples 16, 20); format: cell-based; conditions: cyanocobalamin 0.37 μM vs 0, propionic acid 3 and 9 g/L
Experimental: (§1) As described above, OCFAs anaplerosis can merely take place in the presence of cyanocobalamin. In this implementation, the cell dry weight and residual propionate can be monitored, and residual glucose in the media can be analyzed.
(§2) Aurantiochytrium acetophilum HS399 was cultivated in the presence and absence of cyanocobalamin. […] The vitamin solution contained (mg/L): thiamine (100) and biotin (0.5). All culture materials were autoclaved (121° C., 15 min) and media was filter sterilized before use. […] Biomass for lipid analysis was centrifuged and washed using purified water. The washed biomass was freeze dried.
as §1, with “analyzed. […] Cell dry weight reached the same titers independently of the cyanocobalamin concentration.” for “analyzed.”

[6] = tested on: Aurantiochytrium acetophilum HS399; assay: Cyanocobalamin impact on propionate metabolism (Example 21); format: cell-based
Experimental: as §2, with “cyanocobalamin. […] The trace element solution contained (g/L):” for “cyanocobalamin.”, “dried. […] As described above, OCFAs anaplerosis can merely take place in the presence of cyanocobalamin. In this implementation, the cell dry weight and residual propionate can be monitored, and residual glucose in the media can be analyzed.” for “dried.”

[7] = cyanocobalamin 370 nM vs 0, propionic acid 16 g/L

## CC[C@H](C)[C@H](N)C(=O)O [isoleucine]
[1]
  capacity to induce the production of OCFAs: identified as a nitrogen and OCFAs source

## CC(C)[C@H](N)C(=O)O [valine]
[1]
  capacity to induce the production of OCFAs: identified as a nitrogen and OCFAs source

## CSCC[C@H](N)C(=O)O [methionine, reference compound]
[2]; 0.5 g/L, with or without cyanocobalamin 0.00037 μM
  effect of supplementation on growth: does not appear to have an impact in growth

## CC(=O)O [Acetic acid, acetic acid, reference compound]
[3]
  Total Fatty Acid: 71.9 ± 5.2 % CDW
  Total Lipids: 89.5 ± 0.5 % CDW

## C=C(CC(=O)O)C(=O)O [Itaconic acid, itaconic acid, reference compound]
[4]
  Cell dry weight: 7.9 ± 1.1 g/L
  Consumed propionate: 5.0 ± 1.6 g/L
  Odd chain fatty acids: 1.1 ± 0.6 % DW
  Propionic acid deposition: 0.5 ± 0.2%

## cyanocobalamin
[5]
  glucose uptake rate: significantly (P<0.01 t-student) lower
  growth in the first 48 hrs: may not be impacted
[6]; [7]
  effect on cell dry weight: positive difference in cell dry weight
  glucose uptake rate: significantly (P<0.01 t-student) lower
[6]; propionic acid 16 g/L, FIG. 58
  residual propionate in cultures deficient in cyanocobalamin: chronical higher residual propionate
[2]; over 10 generations
  effect of cyanocobalamin deprived media on growth: substantially no impact on growth

## CCCCCCC(=O)O [heptanoate, heptanoic acid]
[1]; FIG. 53
  toxicity (growth inhibition): higher than that of propionic acid
